What is called solubility is how much of the substance goes into solution per volume. Broadly, the Papp A→B is the apparent permeability from the apical to the basolateral side of a cell layer. As usually defined, the AUC(0-inf) is the area under the concentration-time curve extrapolated to infinity. What is called Cmax is the peak of the concentration-time curve. Usually CL/F stands for clearance divided by bioavailability, as obtained after extravascular dosing.

Calls of active or inactive are those of the source. The calls are words filed in the database; no cut-off is given here. A value given as a limit tells only on which side of the number the result lay.

The nature of data set [1]: Time required for attaining concentration above IC50 of HDAC1 in tumor of nude BALB/c mouse xenografted with HCT116 cells at 100 mg/kg, po administered as single dose. It is filed as ADME, organism-based, Neoplasm, HCT-116. On the set-up: dose 100 mg/kg, route oral. The settings on record: in vivo.
Data set [2] can be described thus: Time required for attaining concentration above IC50 of HCT116 in tumor of nude BALB/c mouse xenografted with HCT116 cells at 50 mg/kg, po administered as single dose. In kind it is ADME, organism-based, Neoplasm, HCT-116. Also noted: dose 50 mg/kg, route oral. The settings on record: in vivo.
Data set [3] in a line: Plasma protein binding in rat at 1000 ng/mL. In kind it is ADME, cell-free. Particulars: read-out: PPB (converted).
A short description of data set [4]: Plasma protein binding in mouse at 1000 ng/mL. In kind it is ADME, cell-free. The settings on record: read-out: PPB (converted).
Data set [5] deals with Stromelysin-1 (Homo sapiens) (UniProt P08254). Nature of the data set: Inhibition of MMP3 at 10 uM.
Stromelysin-1 (Homo sapiens), sequence (P08254 100-477 limits assumed): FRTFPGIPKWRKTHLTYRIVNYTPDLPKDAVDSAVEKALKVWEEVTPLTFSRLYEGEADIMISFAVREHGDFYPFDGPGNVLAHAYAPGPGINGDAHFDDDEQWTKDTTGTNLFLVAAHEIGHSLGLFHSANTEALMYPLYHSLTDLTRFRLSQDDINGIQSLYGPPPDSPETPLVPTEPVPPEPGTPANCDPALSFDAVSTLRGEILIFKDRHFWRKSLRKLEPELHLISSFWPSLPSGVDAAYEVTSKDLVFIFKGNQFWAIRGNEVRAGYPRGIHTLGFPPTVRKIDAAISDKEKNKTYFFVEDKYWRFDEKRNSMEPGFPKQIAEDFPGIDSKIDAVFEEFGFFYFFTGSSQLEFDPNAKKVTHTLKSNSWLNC
A short description of data set [6]: Half life in mouse liver microsomes. The settings on record: liver microsomes. In kind it is ADME, Microsome. In general terms: Microsomes from liver hold many membrane-bound enzymes, among them those of drug oxidation.
A short description of data set [7]: Solubility of the compound in 1% methylcellulose/0.1% Tween 80. In kind it is physicochemical.
The nature of data set [8]: Half life in dog liver microsomes. It is filed as ADME, Canis lupus familiaris, Microsome.
A short description of data set [9]: Kinetic solubility of the compound at pH 7 with […] DMSO. In kind it is physicochemical. The settings on record: buffer, read-out: Kinetic_solubility.
A short description of data set [10]: Apparent permeability from apical to basolateral side of human Caco2 cells. In kind it is ADME, cell-based. The settings on record: Caco-2.
The nature of data set [11]: AUC (0 to infinity) in nude BALB/c mouse at 50 mg/kg, po. In kind it is ADME, organism-based. On the set-up: time infinity, dose 50 mg/kg, route oral. Particulars: plasma.
The nature of data set [12]: Cmax in Wistar rat at 10 mg/kg, po. In kind it is ADME, organism-based. Also noted: dose 10 mg/kg, route oral. The settings on record: in vivo.
Data set [13] can be described thus: Apparent oral clearance in Wistar rat at 10 mg/kg, po. Particulars: in vivo. On the set-up: dose 10 mg/kg, route oral. It is filed as ADME, organism-based.
Data set [14] has as its system Mus musculus. The data set is described as follows: Toxicity in nude BALB/c mouse xenografted with human HCT116 cells assessed as mouse survival at 50 mg/kg, po QD for 21 days measured on day 22. It is filed as organism-based, HCT-116. On the set-up: dose 50 mg/kg, route oral. Particulars: in vivo, 504 h.
Data set [15] in a line: AUC (0 to infinity) in Wistar rat at 10 mg/kg, po. In kind it is ADME, organism-based. On the set-up: time infinity, dose 10 mg/kg, route oral. The settings on record: plasma.
Data set [16] in a line: Terminal half life in Beagle dog at 2 mg/kg, iv. It is filed as ADME, organism-based, Canis lupus familiaris. The settings on record: in vivo, read-out: beta t1/2 (converted). On the set-up: dose 2 mg/kg, route intravenous.
Data set [17] is described as follows: AUC (0 to infinity) in Beagle dog at 2 mg/kg, iv. It is filed as ADME, organism-based, Canis lupus familiaris. On the set-up: time infinity, dose 2 mg/kg, route intravenous. The settings on record: plasma.
The subject of data set [18] is A2780. The data set is described as follows: Antitumor activity against human A2780 cells xenografted in nude BALB/c mouse assessed as tumor growth inhibition at 100 mg/kg, po qd for 21 days measured on day 9. The settings on record: read-out: TGI. In kind it is functional.
Data set [19] concerns A2780. Nature of the data set: Antitumor activity against human A2780 cells xenografted in nude BALB/c mouse assessed as tumor growth inhibition at 50 mg/kg, po qd for 21 days measured on day 9. In kind it is functional. The settings on record: read-out: TGI. On the technique in general: Xenograft models place foreign cells or tissue in a host animal.
The subject of data set [20] is Mus musculus. Nature of the data set: Toxicity in nude BALB/c mouse xenografted with human A2780 cells assessed as maximum body weight loss at 50 mg/kg, po QD for 21 days measured on day 13. It is filed as organism-based. The settings on record: in vivo, 504 h. Also noted: dose 50 mg/kg, route oral.
The subject of data set [21] is Mus musculus. The data set is described as follows: Toxicity in nude BALB/c mouse xenografted with human Ramos cells assessed as mortality at 50 mg/kg, po QD for 21 days measured on day 15. It is filed as organism-based. Also noted: dose 50 mg/kg, route oral. Particulars: in vivo, 504 h.
Data set [22] concerns Mus musculus. The data set is described as follows: Toxicity in nude BALB/c mouse xenografted with human MV4-11 cells assessed as maximum body weight loss at 25 mg/kg, po QD for 21 days measured on day 10. In kind it is organism-based. Also noted: dose 25 mg/kg, route oral. Particulars: in vivo, 504 h.

As for `CCCCc1nc2cc(/C=C/C(=O)NO)ccc2n1CCN(CC)CC.Cl.Cl`, the Time worked out at 16 h in data set [1] and 5.1 h in [2]. In addition, the fraction unbound at 1000 ng/mL is 0.07 in data set [3] and 0.061 in data set [4]. Also, the inhibition result in data set [5] is “inactive”. The half-life in [6] was 0.45 h; in [8], greater than 1 h; in data set [16] it was 3.9 h. In [7], this molecule returned a solubility greater than 25 mg/mL. In addition, in [9], the solubility kinetic is greater than 200 µM. Further, in data set [10], the Papp A→B was 7.04 ×10⁻⁶ cm/s. For the same molecule, the AUC(0-inf) in data set [11] stood at 4.27 µM·h; in data set [15], 0.181 µM·h; in [17], 3.22 µM·h. In data set [12], this molecule gave a Cmax of 139 nM. In data set [13], the CL/F was 2550 mL/min/kg. Moreover, the Activity entry in [14] is “Non-toxic”; in data set [20], 8.9%; in [21], “Non-toxic”; in data set [22], 10%. Further, the inhibition in vivo at 100 mg/kg in data set [18] was found to be 63%. Also, the inhibition in vivo at 50 mg/kg in data set [19] turned out to be 44%.

Source of the values: ChEMBL document CHEMBL1828590 (J Med Chem, 2011).
